Data: paper PMC4988473, “Evaluation of Three Amorphous Drug Delivery Technologies to Improve the Oral Absorption of Flubendazole” (Journal of Pharmaceutical Sciences, 2016)
Values after ≈ are worked out from the molar mass of the structure shown. Read-outs that look alike come from different tables or passages of the source.

Legend:
Onchocerca volvulus = test system: Onchocerca volvulus; design: method as in PMID 6130195; settings: after 12 months of follow-up; 5 weekly injections; cited from earlier work
[1] = Apparent permeability (Papp); type: in vitro ADME; settings: not told, AB
Description: (§1) Table 1 Physicochemical Properties of Flubendazole (FLU) | column: Value

pKa of flubendazole = type: physicochemical
LogP of flubendazole = type: physicochemical
Description: as §1

[2] = Solubility in ambient conditions; type: physicochemical

Papp at 10 μM [1]: 33.8 ×10⁻⁶ cm/s
pKa (pKa of flubendazole): 9.6
pKa (pKa of flubendazole; carbamate group): 3.6
logP (LogP of flubendazole): 3
solubility ([2]; acetone, organic solvent or mixture, read-out: Solubility in acetone): 180 µg/mL (≈ 0.575 mM)
solubility ([2]; dichloromethane, organic solvent or mixture, read-out: Solubility in dichloromethane): 140 µg/mL (≈ 0.447 mM)
solubility ([2]; formic acid, organic solvent or mixture, read-out: Solubility in formic acid): 340000 µg/mL (≈ 1090 mM)
solubility ([2]; methanol, organic solvent or mixture, read-out: Solubility in methanol): 110 µg/mL (≈ 0.351 mM)
solubility ([2]; water, read-out: Solubility in water): 5 µg/mL (≈ 0.016 mM)
Compound: COC(=O)Nc1nc2cc(C(=O)c3ccc(F)cc3)ccc2[nH]1 [FLU, flubendazole]
Activity against Onchocerca volvulus compared with diethylcarbamazine (Onchocerca volvulus): superior activity
